“Also recorded” adds a separate entry of the source. Like-named read-outs stand apart in the source and are kept apart here. Bounds are passed on as bounds.

The values that follow come from patent US5281710A, “Dynemicin analogs: synthesis, methods of preparation and use” (The Scripps Research Institute, priority 1992, dated 1994).

Series [1] concerns φX174 Form I DNA. In words: φX174 supercoiled DNA cleavage, agarose gel. Conditions: for DNA cleavage potency: pH 8.5, 1000 and 100 μM. In kind it is biochemical. On the procedure: The ethereal solution of Compound 40 produced by the LiAlH4 reduction of Compound 21 (39 mg, 0.10 mmol) was evaporated in vacuo to dryness and the residue dissolved in THF (4 mL) to give a 25 mM solution of Compound 40, assuming complete conversion of Compound 21. […]
Thus, a vial containing a 50 micromolar per base pair solution […] of the same buffer solution and 2.0 microliters of a 5.0 millimolar ethanol solution of Compound 40.
[…] A 2.0 microliter portion of glycerol loading buffer solution containing bromothymol blue indicator was added to each vial. A 10 microliter aliquot was then drawn from each. Gel electrophoresis analysis of the aliquots was performed using a 1.0 percent agarose gel with ethidium bromide run at 115 volts for 1 hour. DNA cleavage was indicated by the formation of nicked relaxed circular DNA (form II) or linearized DNA (form III), which was detected by visual inspection of the gel under 310 nanometer ultraviolet light using ethidium bromide.

Series [2] is described as follows: Chemical stability. Format: physicochemical.
Series [3] deals with MOLT-4 (Leukemia) cell line. In words: cells. In kind it is cell-based. On the procedure: (§1) In addition to the screening already discussed, several of the before-described compounds and chimeras were screened against several or all of a panel of ten to twenty-five cancerous cell lines as target cells and seven "normal" cell preparations. This screening utilized a sulforhodamine B cytotoxidity assay as discussed below.
(§2) IC50 values; i.e., the concentration of Compound required to kill one-half of the treated cells, were then calculated.

Series [4] relates to NHDF normal human dermal fibroblasts. In words: in vitro. Format: cell-based. Conditions: for IC50: NHDF, read-out: Range of Average IC50 Values, NHDF. The procedure: as §1, §2
NHDF Normal human dermal fibroblasts

For series [5], the system named is SK-Mel-28 melanoma cells. The experiment in a line: Sulforhodamine B cytotoxicity, SK-Mel-28. In kind it is cell-based. The procedure: as §1, §2
Series [6] deals with Ovcar-3 ovarian carcinoma cells. In words: Sulforhodamine B cytotoxicity, Ovcar-3. Format: cell-based. The settings on record: Table 7, Ovcar-3; read-out: Cytotoxicity (IC50). The procedure:
as §1, §2

For series [7], the system named is HT-29 colon carcinoma cells. The experiment in a line: Sulforhodamine B cytotoxicity, HT-29. In kind it is cell-based. Conditions: Table 7, HT-29; 4320 min; read-out: Cytotoxicity (IC50). The procedure:
as §1, §2

The subject of series [8] is MCF-7 breast carcinoma cells. The experiment in a line: Sulforhodamine B cytotoxicity, MCF-7. In kind it is cell-based. Conditions: Table 7, MCF-7; 4320 min; read-out: Cytotoxicity (IC50). The procedure:
as §1, §2

In series [9] the test system is UCLA P-3 non-small cell lung carcinoma cells. The experiment in a line: Sulforhodamine B cytotoxicity, UCLA-P3. Format: cell-based, human. The settings on record: Table 7, UCLA-P3; read-out: Cytotoxicity (IC50). On the procedure:
as §1, §2
UCLA P-3 Dr. D. Morton, University of California, […]

In series [10] the test system is H-322 lung carcinoma cells. In words: Sulforhodamine B cytotoxicity, H-322. In kind it is cell-based. Conditions: Table 7, H-322. The procedure: as §1, §2
Series [11] concerns Capan-1 pancreatic carcinoma cells. The experiment in a line: Sulforhodamine B cytotoxicity, Capan-1. In kind it is cell-based. On the procedure: as §1, §2
Series [12] deals with HL-60 promyeocytic leukemia cells. In words: Sulforhodamine B cytotoxicity, HL-60. Format: cell-based. On the procedure:
as §1, §2

Series [13] has as its system P-388 mouse lymphoma cells. The experiment in a line: Sulforhodamine B cytotoxicity, P-388. In kind it is cell-based. Conditions: Table 7, P-388; read-out: Cytotoxicity (IC50). On the procedure: as §1, §2
For series [14], the system named is CHO Chinese hamster ovary cells. In words: Sulforhodamine B cytotoxicity, CHO. In kind it is cell-based. The settings on record: Table 7, CHO; read-out: Cytotoxicity (IC50). The procedure: as §1, §2
Series [15] relates to MCF-7(ADR) breast carcinoma cells. In words: Sulforhodamine B cytotoxicity, MCF-7/ADR. Format: cell-based. The settings on record: Homo sapiens, NCI/ADR-RES, Adriamycin resistant. The procedure:
as §1, §2

The test system of series [16] is cancer cell lines. The experiment in a line: cells. In kind it is cell-based. Conditions: Average data obtained from 5~10 cell lines; read-out: IC50 (average). On the procedure:
as §1
SULFORHODAMINE B CYTOTOXICITY ASSAY
a. Stock drug solutions were prepared by dissolving drug in the appropriate solvent (determined during chemical characterization studies) and sterile filtering the drug-solvent solution through a sterile 0.2μ filter unit. An aliquot was taken from each filtered drug solution and the O.D. was measured to determine the drug concentration.
f. Incubate (37° C., 5-10 percent CO2 in humidified incubator) plates for a total of 72 hours. Check plates at 24 hour intervals microscopically for signs of cytotoxicity.
as §2
All other cells or cell lines were obtained from the American Type Culture Collection (ATCC) (all except CHO cells are human or mouse cancer cell lines as described by the ATC).
Tables 1 and 2 herein below provide average IC50 data from five to all ten of the above cancer cells lines for fused ring enediyne compounds disclosed herein. Those tables provide a generic structure and a description of the R group of that generic structure for each compound. Compound numbers as noted hereinbefore are also provided. Table 3 contains data for two fused-ring enediyne compounds (Compounds 47 and 120) as well as data for six chimers. Table 4 contains cancer cell and noraml cell cytotoxicity data for one select fused ring enediyne, Compound 153 against a number of "normal" cell preparations and tumor cell lines. Table 5 contains cancer cell and normal cell cytotoxicity data for another fused ring enediyne, Compound 250 against a similar panel of cells.

The mark [17] stands for this setting: 10 mM, pH 8.5, 48 hours, 37° C.
The mark [18] stands for this setting: 5.0 mM, pH 8.5, 36 hours, 37° C.
[19] abbreviates: Homo sapiens, SK-MEL-28, SK-Mel-28, read-out: IC50.
[20] abbreviates: Homo sapiens, CAPAN-1, Capan-1, read-out: IC50.
Setting [21] is: Homo sapiens, HL-60, HL-60, read-out: IC50.

With `OC12CCCC3C#Cc4cc5ccccc5cc4C#CC1Nc1ccccc1C32O` (stereo not drawn) [Compound 87b], the DNA cleavage entry in series [1] (setting [17]) was “converted supercoiled .phi.X174 form I DNA”. Further, the chemical stability entry in series [2] is given as “stable in the presence of 1,4-cyclohexadiene, but cycloaromatized at elevated temperature (65° C., two hours)”.

What is called IC50 is the concentration that gives 50% inhibition. For the molecule `CC(COC(=O)N1c2ccccc2C23OC24CCCC3C#CC=CC#CC14)S(=O)(=O)c1ccccc1` (stereo not drawn) [Compound 428], in series [1] (5.0 mM, pH 8.5 and 9.0, 48 hours, 37° C.), the DNA cleavage entry is given as “greatly reduced in vitro DNA cleaving ability”. Moreover, the IC50 in series [3] (Table 7, Molt-4, read-out: Cytotoxicity (IC50)) is 1000 nM; in series [5] (Table 7, SK-Mel-28, read-out: Cytotoxicity (IC50)), below 100 µM; in series [6], 13 µM; in [7] it was 13 µM; in [8] it was below 100 µM; in series [9], 13 µM. Moreover, the IC50 was determined as 6300 nM in [11] (Table 7, Capan-1, read-out: Cytotoxicity (IC50)); 1600 nM in [12] (Table 7, HL-60, read-out: Cytotoxicity (IC50)); 1600 nM in [13]. The CC50 in series [4] (Table 7, NHDF, read-out: Cytotoxicity (IC50)) was below 100 µM; in series [14] it was below 100 µM. Besides, in series [10], the “Cytotoxicity (IC50)” value is reported as “Non-Toxic”.

With `N.N.[Cl][Pt][Cl]` [Cis-Platin], in [4] (control drugs), the IC50 was 50 µM.

In the case of `OC12CCCC3C#Cc4ccccc4C#CC1Nc1ccccc1C32O` (stereo not drawn) [Compound 76b], the DNA cleavage entry in series [1] (setting [17]) is reported as “converted supercoiled .phi.X174 form I DNA”. In series [2], the chemical stability result is “cyclized spontaneously at 25 °C in the presence of 1,4-cyclohexadiene”.

For the molecule `O=C(Oc1ccccc1)N1c2cc(O)ccc2C23OC24CCCC3(O)C#C/C=C\C#CC14` (stereo not drawn) [Compound 42], in series [1] (2 mM), the “cleavage of double stranded DNA” value was “shown to cause cleavage of double stranded DNA”. Besides, the DNA cleavage result was “significant DNA cleavage” in series [1] (5 mM, pH 8.0, 24 hours) and “significant DNA cleaving action” in series [1] (setting [18]). In series [2], the chemical stability entry was “led to decomposition”.

For the molecule `CN(Cc1cnc2nc(N)nc(N)c2n1)c1ccc(C(=O)N[C@@H](CCC(=O)O)C(=O)O)cc1` [Methotrexate], the IC50 in series [4] (Homo sapiens, control drugs) is 50 µM.

For `COC12C#C/C=C\C#CC3NC4=CC(=O)C=CC45OC15C3(O)CCC2` (stereo not drawn) [Compound 58], the DNA cleavage entry in series [1] (5 mM, pH 8.0, 24 hours) is listed as “diminished activity against DNA”. For the same molecule, in series [2], the chemical stability entry is given as “stable molecules”.

Turning to `CC(=O)O[C@H]1C(=O)[C@@]2(C)[C@H]([C@H](OC(=O)c3ccccc3)[C@]3(O)C[C@H](OC(=O)[C@H](O)[C@@H](NC(=O)c4ccccc4)c4ccccc4)C(C)=C1C3(C)C)[C@]1(OC(C)=O)CO[C@@H]1C[C@@H]2O` [Taxol], the IC50 in [4] (Homo sapiens, control drugs) was 0.01 µM.

Regarding `COC1=C(C(=O)O)[C@H](C)[C@@]23O[C@]24c2cc(O)c5c(c2N[C@H]3C#C/C=C\C#C[C@H]14)C(=O)c1c(O)ccc(O)c1C5=O` [Dynemicin A], in [4] (Homo sapiens, control drugs), the IC50 came out at 0.01 µM.

In the case of `O=C1C=CC23OC24C2(O)C#C/C=C\C#CC(N(C(=O)Oc5ccccc5)C3=C1)C4(O)CCC2` (stereo not drawn) [Compound 54], the DNA cleaving activity entry in series [1] is given as “exhibited DNA cleaving activity”. Further, the DNA cleavage entry in series [1] (5 mM, pH 8.0, 24 hours) is listed as “significant DNA cleavage”; in [1] (setting [18]), “exhibited DNA cleaving capability”. Moreover, the chemical stability entry in series [2] is “sensitive but stable molecule under neutral conditions”.

As to `COC12C#C/C=C\C#CC3N(C(=O)Oc4ccccc4)C4=CC(=O)C=CC45OC15C3(O)CCC2` (stereo not drawn) [Compound 62], the DNA cleavage result in series [1] (5 mM, pH 8.0, 24 hours) was “diminished activity against DNA”. Further, the chemical stability result in [2] was “stable molecules”.

As for `O=C(OCCS(=O)(=O)c1ccccc1)N1c2ccccc2[C@@]23O[C@]24CCC[C@H]3C#C/C=C\C#C[C@H]14` [(+)-45], the DNA cleavage potency entry in [1] was “comparable potencies”. For the same molecule, the IC50 was 6.3 µM in series [5] (setting [19]), 780 nM in [15], 390 nM in series [11] (setting [20]) and above 98 nM in [12] (setting [21]).

Regarding `C1#CC2Nc3ccccc3C34OC23CCCC4C#C/C=C\1` (stereo not drawn) [Compound 40], the DNA cleavage entry is listed as “significant DNA cleavage” in series [1] (5 mM, pH 8.0, 24 hours) and “cleavage” in [1] (pH 7.4 phosphate, 20 volume percent THF, 24 hours, 100-5000 μM). In series [2], the chemical stability result is “too labile for isolation; also recorded: decomposed at that temperature”.

With `O=C(OCCS(=O)(=O)c1ccccc1)N1c2ccccc2[C@]23O[C@@]24CCC[C@@H]3C#C/C=C\C#C[C@@H]14` [(-)-45], the DNA cleavage potency result in series [1] is on record as “comparable potencies”. Also, the IC50 was found to be 100 nM in series [3] (Homo sapiens, MOLT-4, Molt-4 leukemia cell line, read-out: IC50); 6.3 µM in [5] (setting [19]); 1600 nM in series [15]; 1600 nM in series [11] (setting [20]); 780 nM in series [12] (setting [21]).

On to `COc1ccc2c(c1)N(C(=O)Oc1ccccc1)[C@H]1C#C/C=C\C#C[C@]3(O)CCC[C@]14O[C@]243` (relative stereo) [Compound 41], for which the DNA cleavage entry in series [1] (2 mM, pH 5.0) is on record as “also cleaved DNA”. In [16], the IC50 amounted to 20 µM. Moreover, the chemical stability entry in series [2] is “reasonable stability under neutral and basic conditions; also recorded: cyclized rapidly under acidic conditions”.

For the molecule `C1#CC2Nc3ccccc3C34OC23CCCC4C#Cc2ccccc21` (stereo not drawn) [Compound 76a], in [2], the chemical stability entry was “stable at 25 °C”.

`O=C(Oc1ccccc1)N1c2cc(OCc3ccccc3[N+](=O)[O-])ccc2C23OC24CCCC3(O)C#C/C=C\C#CC14` (stereo not drawn) [Compound 43]: the DNA cleavage entry in series [1] (setting [18]) was “inert”. For the same molecule, the chemical stability result in [2] is “rather labile”.

Consider `N[C@@H](Cc1ccc(N(CCCl)CCCl)cc1)C(=O)O` [Melphelan], for which the IC50 in series [4] (Homo sapiens) came to 100 µM.
